Patent US10442758B2, “Zinc or Copper (II) salt and use thereof as a biocide” (LABORATORIYA BIO ZET, LLC, priority 2013, dated 2019)

Columns and labels:
Type in all cases: cell-based
fungal spores = test: Fungicidal activity according to GOST 30028.4-2006: resistance of treated material samples to fungal spores
[1] = test system: E. coli No. 906, S. aureus No. 1257, P. aeruginosa, methicillin-resistant strain S. aureus; test: Bactericidal activity, summary over the investigated strains
Procedure: (§1) The determination is performed on E. coli No. 906 and S. aureus No. 1257 test strains being usually used to study the bactericidal activity of biocides as well as on clinical strains—P. aeruginosa and methicillin-resistant strain S. aureus—at salt concentrations from 0.5 to 2% and time of exposure from 5 to 60 min.
(§2) The same method as described in Example 9 is used to determine the bactericidal activity of ZMA against three of four strains studied in Example 9.

[2] = test system: P. aeruginosa (clinical strain); test: Bactericidal activity: bacterial culture exposed in salt solution, neutralized, inoculated on solid nutrient medium; conditions: for Bactericidal activity: growth of P. aeruginosa: 1.0 % wt., CFU in 1 ml
Procedure: as §1, §2

S. aureus No. 1257 = test: as above; conditions: for Bactericidal activity: growth of S. aureus test strain: CFU in 1 ml
Procedure: The determination is performed on E. coli No. 906 and S. aureus No. […]
as §2

E. coli No. 906 = test: as above; conditions: time of exposure 30 min, concentration from 1.0 to 2.5%
Procedure: as §1, §2

[3] = test material polyvinyl chloride emulsion, additive content 0.5 % wt.
[4] = test material paper impregnated with latex SKS 65 GP, additive content 0.5 % wt.
[5] = test material paper impregnated with petrolatum base, additive content 4.7 % wt.

| Compound | Tolerance time (fungal spores; [3]) | bactericidal effect (in words) ([1]; concentration 1.0%, time of exposure from 30 min) | Bactericidal activity: growth of P. aeruginosa ([2]; exposure 5 min) | Tolerance time (fungal spores; [4]) | Tolerance time (fungal spores; [5]) | Bactericidal activity: growth of S. aureus test strain (S. aureus No. 1257; 1.0 % wt., exposure 15 min) | bactericidal activity compared with the proposed salts ([1]; comparison of Table 3 with Table 2) | Bactericidal activity: growth of P. aeruginosa ([2]; exposure 30 min) | bactericidal activity (in words) against P. aeruginosa ([2]; only at concentration from 2.5%) | bactericidal activity (in words) against E. coli No. 906 (E. coli No. 906) | Tolerance time (fungal spores; test material polyvinyl chloride emulsion, additive content 5 % wt.) | Bactericidal activity: growth of S. aureus test strain (S. aureus No. 1257; 2.5 % wt., exposure 30 min) | Bactericidal activity: growth of S. aureus test strain (S. aureus No. 1257; 5 % wt., exposure 5 min) | bactericidal activity (in words) against S. aureus No. 1257 (S. aureus No. 1257; only at concentration of 2.5% and time of exposure of 60 min) |
| --- | --- | --- | --- | --- | --- | --- | --- | --- | --- | --- | --- | --- | --- | --- |
| C=CC(=O)[O-].O=C([O-])c1ccccc1.[Zn+2] [Zinc acrylate-benzoate] | 11 days |  |  |  |  |  |  |  |  |  |  |  |  |  |
| Zinc methacrylate-sulfosalicylate | 16 days | stable bactericidal effect against three of four investigated strains | 1 CFU | 16 days | 20 days | >300 CFU |  |  |  |  |  |  |  |  |
| C=C(C)C(=O)[O-].CC(=O)[O-].[Zn+2] [ZMA, zinc methacrylate-acetate] |  |  |  | 12 days | 16 days |  | substantially lower than that of the proposed salts | >300 CFU | not completely stable bactericidal activity | stable bactericidal activity | 22 days | >300 CFU | >300 CFU | sub-bactericidal activity |
